What was measured:
[1] = system: gene expression of COL1A1, COL3A1 and COL4A1 in NRK49F cells; assay: Effect of NNMT siRNA on collagen gene expression enhanced by TGFβ in NRK49F cells (quantitative PCR); format: cell-based, rat; details: TGFβ 5 ng/mL, 48 hr
Method: (§1) The siRNA of NNMT was introduced into NRK49F cells, rat kidney fibroblast cell line, the effect of which on enhanced gene expression of COL1A1, COL3A1 and COL4A1 by TGFβ stimulation was examined (FIG. 4). After NRK49F cells were seeded into 12 well plates at 4×10^4 cells/well/mL and culture for 72 hr, culture medium was changed to antibiotic-free medium and siRNA sequence (F; […] (SEQ ID NO: 2), R; […] (SEQ ID NO: 3)) for rat NNMT purchased was introduced into cells for 24 hr by lipofection method using RNAiMAX (Invitrogen Corp.) which is an introduction reagent of siRNA. Next, culture medium was changed to serum-free medium and after 24 hr, human recombinant TGFβ (R & D Co., Ltd., 5 ng/mL) was added and cultured for 48 hr. After culture, total RNA was extracted from cells and the gene expression levels of NNMT, COL1A1, COL3A1 and COL4A1 were analyzed by quantitative PCR.

rat NNMT = assay: siRNA knock-down of NNMT gene expression in TGFβ-stimulated NRK49F cells (quantitative PCR); format: cell-based; details: TGFβ 5 ng/mL, 48 hr
Method: as §1

NRK49F cells = assay: TGFβ stimulation of NRK49F rat kidney fibroblasts, gene expression by quantitative PCR; format: cell-based
Method: Effect of stimulation by TGFβ, known as a promoting factor of fibrosis (Refer to Nephrol Dial Transplant., 1998, vol. 13, p. 573-579), on gene expression of NNMT, COL1A1, COL3A1 and COL4A1 was examined using NRK49F cells that are rat kidney fibroblasts. NRK49F cells were seeded into 12 well plates at 4×10^4 cells/well/mL and culture medium was changed to serum-free medium after 72 hr. Recombinant human TGFβ1 (R & D Co., Ltd., 5 ng/mL) was added after 24 hr and the cells were cultured for 6, 24 and 48 hr. After culture, total RNA was extracted from cells and the gene expression levels of NNMT, COL1A1, COL3A1 and COL4A1 were analyzed by quantitative PCR.
as §1

Row | Substance | decrease in gene expression of COL1A1 ([1]; siRNA 0.01 nM) [%] | decrease in gene expression of COL3A1 ([1]; siRNA 0.01 nM) [%] | decrease in gene expression of COL4A1 ([1]; siRNA 0.01 nM) [%] | decrease in gene expression of COL1A1 ([1]; siRNA 0.1 nM) [%] | decrease in gene expression of COL3A1 ([1]; siRNA 0.1 nM) [%] | decrease in gene expression of COL4A1 ([1]; siRNA 0.1 nM) [%] | decrease in gene expression of COL1A1 ([1]; siRNA 1 nM) [%] | decrease in gene expression of COL3A1 ([1]; siRNA 1 nM) [%] | decrease in gene expression of COL4A1 ([1]; siRNA 1 nM) [%] | knock-down of gene expression of NNMT (rat NNMT; siRNA 0.01 nM) [%] | knock-down of gene expression of NNMT (rat NNMT; siRNA 0.1 nM) [%] | knock-down of gene expression of NNMT (rat NNMT; siRNA 1 nM) [%] | increase in gene expression of COL1A1 (NRK49F cells; TGFβ 5 ng/mL, 48 hr) [fold] | increase in gene expression of COL3A1 (NRK49F cells; TGFβ 5 ng/mL, 48 hr) [fold] | increase in gene expression of COL4A1 (NRK49F cells; TGFβ 5 ng/mL, 48 hr) [fold] | increase in gene expression of NNMT (NRK49F cells; TGFβ 5 ng/mL, 48 hr) | gene expression level of COL1A1 over time (NRK49F cells; TGFβ1 5 ng/mL, 6, 24 and 48 hr) | gene expression level of COL3A1 over time (NRK49F cells; TGFβ1 5 ng/mL, 6, 24 and 48 hr) | gene expression level of NNMT over time (NRK49F cells; TGFβ1 5 ng/mL, 6, 24 and 48 hr) | gene expression of COL4A1 over time (NRK49F cells; TGFβ1 5 ng/mL, 6, 24 and 48 hr)
1 | siRNA of NNMT: siRNA for rat NNMT, purchased; F CCACAUCCAAUAAUGAAGGACUCUU (SEQ ID NO: 2), R AAGAGUCCUUCAUUAUUGGAUGUGG (SEQ ID NO: 3) (listed as RNA, chemistry not given here) | 20 | 20 | 33 | 36 | 31 | 15 | 78 | 62 | 57 | 23 | 45 | 60 | – | – | – | – | – | – | – | –
2 | TGFβ1: Recombinant human TGFβ1 (R & D Co., Ltd.), promoting factor of fibrosis used as stimulus | – | – | – | – | – | – | – | – | – | – | – | – | 7.1 | 6.5 | 3.1 | about 3.6 fold | time-dependent increases | time-dependent increases | time-dependent increases | reached the maximum level in 6 hr and left the plateau to 24 hr
